Like-named read-outs stand apart in the source and are kept apart here.
How the values were obtained:
human M2 receptor [1] = target: T1, human M2 receptor (Homo sapiens, UniProt P08172); format: cell-based; settings: α >1 = positive cooperativity
T1 sequence (P08172 1-466): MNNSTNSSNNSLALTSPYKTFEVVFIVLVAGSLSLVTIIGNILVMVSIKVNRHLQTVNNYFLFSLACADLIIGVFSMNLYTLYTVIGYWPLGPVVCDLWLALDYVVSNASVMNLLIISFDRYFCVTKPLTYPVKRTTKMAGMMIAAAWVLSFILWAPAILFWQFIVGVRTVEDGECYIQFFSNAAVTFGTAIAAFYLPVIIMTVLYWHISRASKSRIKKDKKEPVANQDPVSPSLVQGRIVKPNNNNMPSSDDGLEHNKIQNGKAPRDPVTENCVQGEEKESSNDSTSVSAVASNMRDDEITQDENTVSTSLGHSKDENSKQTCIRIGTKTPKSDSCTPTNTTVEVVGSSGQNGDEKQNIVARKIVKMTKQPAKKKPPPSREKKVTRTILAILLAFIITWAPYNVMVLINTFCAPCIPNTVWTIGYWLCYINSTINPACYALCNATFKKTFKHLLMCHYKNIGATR
Description: B-1.2. Determination of Positive Cooperativity (α Factor)
In contrast to the EC50 determination of the test substances (see B-1.1), however, this is not done using one acetylcholine concentration; instead, every concentration of the test substance is combined with an acetylcholine 8-point dose-response curve. […] The shift in the acetylcholine dose-response curve in the presence of increasing concentrations of the test substance is analysed and quantified by means of GraphPad PRISM (Allosteric EC50 shift). […] Positive cooperativity is the hallmark of a positive allosteric modulator. […] The greater the magnitude of the α value, the greater the extent of cooperativity between orthosteric and allosteric.

human M2 receptor [2] = target: T1, human M2 receptor; settings: for Emax: read-out: Efficiency, boosting of the acetylcholine effect at EC20 acetylcholine concentration; for Efficiency: boosting of the acetylcholine effect at EC20 acetylcholine concentration
[3] = shift in the acetylcholine dose-response curve (Allosteric EC50 shift, GraphPad PRISM)
[4] = Receptor activity EC50, M2-GIRK1/4 activation test, acetylcholine at EC20, allosteric potency, in some cases mean values from two or more determinations
[5] = shift of acetylcholine dose-response curve (Allosteric EC50 shift)
[6] = Receptor activity EC50, allosteric potency at EC20 acetylcholine, M2-GIRK1/4 reporter cells, in some cases mean of two or more determinations

Compound	Cooperativity (alpha factor) (human M2 receptor [1]; [3])	EC50 (human M2 receptor [2]; [4]) [nM]	Cooperativity (alpha factor) (human M2 receptor [1]; [5])	EC50 (human M2 receptor [2]; [6]) [nM]	Emax (human M2 receptor [2]; M2-GIRK1/4 reporter cells) [%]	Efficiency (human M2 receptor [2]; M2-GIRK1/4 reporter cells) [%]
CC[C@@H](NC(=O)c1cn(-c2c(F)cccc2F)c2nc(N3CCC(C)(O)C3)ccc2c1=O)C(F)(F)F (mixture of isomers) [Example 276, 1-(2,6-Difluorophenyl)-7-[3-hydroxy-3-methylpyrrolidin-1-yl]-4-oxo-N-[(2R)-1,1,1-trifluorobutan-2-yl]-1,4-dihydro-1,8-naphthyridine-3-carboxamide]	28	80	–	–	–	–
CC[C@@H](NC(=O)c1cn(-c2c(F)cc(F)cc2F)c2nc(N3CCC(O)C3=O)ccc2c1=O)C(F)(F)F (mixture of isomers) [Example 280, 7-[3-Hydroxy-2-oxopyrrolidin-1-yl]-4-oxo-N-[(2R)-1,1,1-trifluorobutan-2-yl]-1-(2,4,6-trifluorophenyl)-1,4-dihydro-1,8-naphthyridine-3-carboxamide]	24	44	–	–	–	–
O=C(NC(c1ccccc1Cl)C(F)(F)F)c1cn(-c2ccccc2F)c2nc(N3CCC(O)C3=O)ccc2c1=O (racemic) [Example 287, N-[1-(2-Chlorophenyl)-2,2,2-trifluoroethyl]-1-(2-fluorophenyl)-7-[3-hydroxy-2-oxopyrrolidin-1-yl]-4-oxo-1,4-dihydro-1,8-naphthyridine-3-carboxamide]	24	145	–	–	–	–
O=C(NC(C1CC1)C(F)(F)F)c1cn(-c2c(F)cccc2F)c2nc(N3C[C@@H](O)CC3=O)ccc2c1=O (mixture of isomers) [Example 295, N-[1-Cyclopropyl-2,2,2-trifluoroethyl]-1-(2,6-difluorophenyl)-7-[(4S)-4-hydroxy-2-oxopyrrolidin-1-yl]-4-oxo-1,4-dihydro-1,8-naphthyridine-3-carboxamide]	71	21	–	–	–	–
CC[C@@H](NC(=O)c1cn(-c2ccc(F)cc2F)c2nc(N3CC(C)CC3=O)ccc2c1=O)C(F)(F)F (mixture of isomers) [Example 301, 1-(2,4-Difluorophenyl)-7-[4-methyl-2-oxopyrrolidin-1-yl]-4-oxo-N-[(2R)-1,1,1-trifluorobutan-2-yl]-1,4-dihydro-1,8-naphthyridine-3-carboxamide]	12	30	–	–	–	–
CC[C@@H](NC(=O)c1cn(-c2c(F)cccc2F)c2nc(N3CC4CC4(O)C3)ccc2c1=O)C(F)(F)F (mixture of isomers) [Example 304, 1-(2,6-Difluorophenyl)-7-[1-hydroxy-3-azabicyclo[3.1.0]hex-3-yl]-4-oxo-N-[(2R)-1,1,1-trifluorobutan-2-yl]-1,4-dihydro-1,8-naphthyridine-3-carboxamide]	24	9	–	–	–	–
CC[C@@H](NC(=O)c1cn(-c2c(F)cccc2Cl)c2nc(N3CC4CC4(O)C3)ccc2c1=O)C(F)(F)F (mixture of isomers) [Example 310, 1-(2-Chloro-6-fluorophenyl)-7-[1-hydroxy-3-azabicyclo[3.1.0]hex-3-yl]-4-oxo-N-[(2R)-1,1,1-trifluorobutan-2-yl]-1,4-dihydro-1,8-naphthyridine-3-carboxamide]	21	14	–	–	–	–
CC[C@@H](NC(=O)c1cn(-c2ccc(F)cc2F)c2nc(N3CCC(C)(OC)C3=O)ccc2c1=O)C(F)(F)F (single isomer, unassigned) [Example 198]	13	113	–	–	–	–
CC[C@@H](NC(=O)c1cn(-c2ccc(F)cc2F)c2nc(N3CCC(C)(OC)C3=O)ccc2c1=O)C(F)(F)F (single isomer, unassigned) [Example 199]	15	263	–	–	–	–
O=C(N[C@H](c1ccccc1Cl)C(F)(F)F)c1cn(-c2ccc(F)cc2F)c2nc(N3CCCC(O)C3=O)ccc2c1=O (single isomer, unassigned) [Example 207]	18	35	–	–	–	–
O=C(N[C@H](c1ccccc1Cl)C(F)(F)F)c1cn(-c2ccc(F)cc2F)c2nc(N3CCCC(O)C3=O)ccc2c1=O (single isomer, unassigned) [Example 208]	23	115	–	–	–	–

Results, then the compound that gave them:

Cooperativity (alpha factor) (human M2 receptor [1]; [3])	EC50 (human M2 receptor [2]; [4]) [nM]	Cooperativity (alpha factor) (human M2 receptor [1]; [5])	EC50 (human M2 receptor [2]; [6]) [nM]	Emax (human M2 receptor [2]; M2-GIRK1/4 reporter cells) [%]	Efficiency (human M2 receptor [2]; M2-GIRK1/4 reporter cells) [%]	Compound
20	25	–	–	–	–	C[C@H](NC(=O)c1cn(-c2c(F)cccc2F)c2nc(N3CC4CC4(O)C3)ccc2c1=O)C(F)(F)F (mixture of isomers) [Example 311, 1-(2,6-Difluorophenyl)-7-[1-hydroxy-3-azabicyclo[3.1.0]hex-3-yl]-4-oxo-N-[(2S)-1,1,1-trifluoropropan-2-yl]-1,4-dihydro-1,8-naphthyridine-3-carboxamide]
–	–	36	9	87	–	CCC(COC(F)(F)F)NC(=O)c1cn(-c2c(F)cc(F)cc2F)c2nc(N3C[C@@H](O)CC3=O)ccc2c1=O (mixture of isomers) [Example 410, 7-[(4S)-4-Hydroxy-2-oxopyrrolidin-1-yl]-4-oxo-N-[1-(trifluoromethoxy)butan-2-yl]-1-(2,4,6-trifluorophenyl)-1,4-dihydro-1,8-naphthyridine-3-carboxamide]
–	–	7	17	89	–	CC1CCN(c2ccc3c(=O)c(C(=O)N[C@@H](C)C(F)(F)F)cn(-c4c(F)cc(F)cc4Cl)c3n2)C1=O (mixture of isomers) [Example 418, 1-(2-Chloro-4,6-difluorophenyl)-7-[3-methyl-2-oxopyrrolidin-1-yl]-4-oxo-N-[(2S)-1,1,1-trifluoropropan-2-yl]-1,4-dihydro-1,8-naphthyridine-3-carboxamide]
–	–	16	6	79	–	CC[C@H](NC(=O)c1cn(-c2c(F)cc(F)cc2Cl)c2nc(N3CCC(C)C3=O)ccc2c1=O)C(F)(F)F (mixture of isomers) [Example 422, 1-(2-Chloro-4,6-difluorophenyl)-7-[3-methyl-2-oxopyrrolidin-1-yl]-4-oxo-N-[(2S)-1,1,1-trifluorobutan-2-yl]-1,4-dihydro-1,8-naphthyridine-3-carboxamide]
–	–	21	50	85	–	CCC1CCN(c2ccc3c(=O)c(C(=O)N[C@@H](C4CC4)C(F)(F)F)cn(-c4c(F)cc(F)cc4F)c3n2)C(=O)N1 (mixture of isomers) [Example 446, N-[(1 S)-1-Cyclopropyl-2,2,2-trifluoroethyl]-7-[4-ethyl-2-oxotetrahydropyrimidin-1(2H)-yl]-4-oxo-1-(2,4,6-trifluorophenyl)-1,4-dihydro-1,8-naphthyridine-3-carboxamide]
–	–	44	6	99.5	–	CCC(NC(=O)c1cn(-c2c(F)cc(F)cc2F)c2nc(N3C[C@@H](O)CC3=O)ccc2c1=O)C(C)C (mixture of isomers) [Example 484, 7-[(4S)-4-Hydroxy-2-oxopyrrolidin-1-yl]-N-[2-methylpentan-3-yl]-4-oxo-1-(2,4,6-trifluorophenyl)-1,4-dihydro-1,8-naphthyridine-3-carboxamide]
–	–	31	10	–	92.0	CC(C)C(NC(=O)c1cn(-c2c(F)cc(F)cc2F)c2nc(N3CCNC3=O)ccc2c1=O)C(F)(F)F (racemic) [Example 537, 4-Oxo-7-(2-oxoimidazolidin-1-yl)-N-[1,1,1-trifluoro-3-methylbutan-2-yl]-1-(2,4,6-trifluorophenyl)-1,4-dihydro-1,8-naphthyridine-3-carboxamide]
–	–	40	7	–	100.0	CC(C)C(NC(=O)c1cn(-c2c(F)cc(F)cc2F)c2nc(N3CCNC3=O)ccc2c1=O)C(F)(F)F (racemic) [Example 538, 4-Oxo-7-(2-oxoimidazolidin-1-yl)-N-[1,1,1-trifluoro-3-methylbutan-2-yl]-1-(2,4,6-trifluorophenyl)-1,4-dihydro-1,8-naphthyridine-3-carboxamide]
–	–	36	19	–	98.5	CC(NC(=O)c1cn(-c2c(F)cc(F)cc2F)c2nc(N3CCNC3=O)ccc2c1=O)C(F)(F)C(F)(F)F (racemic) [Example 542, 4-Oxo-7-(2-oxoimidazolidin-1-yl)-N-[3,3,4,4,4-pentafluorobutan-2-yl]-1-(2,4,6-trifluorophenyl)-1,4-dihydro-1,8-naphthyridine-3-carboxamide]
–	–	33	–	–	94.0	CC(C)(CC(F)(F)F)NC(=O)c1cn(-c2c(F)cc(F)cc2F)c2nc(N3CC(O)C4(CC4)C3)ccc2c1=O (racemic) [Example 571, 7-[7-Hydroxy-5-azaspiro[2.4]hept-5-yl]-4-oxo-N-(4,4,4-trifluoro-2-methylbutan-2-yl)-1-(2,4,6-trifluorophenyl)-1,4-dihydro-1,8-naphthyridine-3-carboxamide]
